# Data as given in patent US12077503B2, “Substituted cyclic amides and their use as herbicides” (FMC CORPORATION, priority 2015, dated 2024).
# Tests used:
# Assay type in all cases: in vivo
# [1] = test system: redroot pigweed (Amaranthus retroflexus); assay: Test G Post-Emergence Protocol; conditions: Amaranthus retroflexus, post-emergence, 312 h; for pest or weed control at 15.625 g/ha: 15.625 g ai/ha, evaluated after 13 days (100=total damage to plant; 0=no damage to plant), read-out: Pigweed, Redroot damage rating; for pest or weed control at 62.5 g/ha: 62.5 g ai/ha, read-out: Pigweed, Redroot damage rating (100=total damage to plant; 0=no damage to plant); for pest or weed control at 62.5 g/ha / pest or weed control at 250 g/ha: evaluated after 13 days; for pest or weed control at 250 g/ha: 250 g ai/ha, read-out: damage to plant, Pigweed, Redroot (100=total damage to plant; 0=no damage to plant)
# How it was run: (§1)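 Values are percent visual injury at 13 days after treatment (0 none, 100 total). Treatment was a post-emergence spray at 15.625, 62.5 or 250 g/ha on 8-day-old pot plants kept at 24/16 °C.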
# corn (Zea mays) [2] = assay: Test G Post-Emergence Protocol; conditions: Zea mays, post-emergence, 312 h; for plant injury at 15.625 g/ha: 15.625 g ai/ha, evaluated after 13 days (100=total damage to plant; 0=no damage to plant), read-out: Corn damage rating; for plant injury at 62.5 g/ha: 62.5 g ai/ha, read-out: Corn damage rating (100=total damage to plant; 0=no damage to plant); for plant injury at 62.5 g/ha / plant injury at 250 g/ha: evaluated after 13 days; for plant injury at 250 g/ha: 250 g ai/ha, read-out: damage to plant, Corn (100=total damage to plant; 0=no damage to plant)
# How it was run: as §1
# [3] = test system: giant foxtail (Setaria faberi); assay: Test G Post-Emergence Protocol; conditions: Setaria faberi, post-emergence, 312 h; for pest or weed control at 15.625 g/ha: 15.625 g ai/ha, evaluated after 13 days (100=total damage to plant; 0=no damage to plant), read-out: Foxtail, Giant damage rating; for pest or weed control at 62.5 g/ha: 62.5 g ai/ha, read-out: Foxtail, Giant damage rating (100=total damage to plant; 0=no damage to plant); for pest or weed control at 62.5 g/ha / pest or weed control at 250 g/ha: evaluated after 13 days; for pest or weed control at 250 g/ha: 250 g ai/ha, read-out: damage to plant, Foxtail, Giant (100=total damage to plant; 0=no damage to plant)
# How it was run: as §1
# [4] = test system: ivy-leaved morning glory (Ipomoea hederacea); assay: Test G Post-Emergence Protocol; conditions: Ipomoea, post-emergence, 312 h; for pest or weed control at 15.625 g/ha: 15.625 g ai/ha, evaluated after 13 days (100=total damage to plant; 0=no damage to plant), read-out: Morningglory, Ivy-leaved damage rating; for pest or weed control at 62.5 g/ha: 62.5 g ai/ha, read-out: Morningglory, Ivy-leaved damage rating (100=total damage to plant; 0=no damage to plant); for pest or weed control at 62.5 g/ha / pest or weed control at 250 g/ha: evaluated after 13 days; for pest or weed control at 250 g/ha: 250 g ai/ha, read-out: damage to plant, Morningglory, Ivy-leaved (100=total damage to plant; 0=no damage to plant)
# How it was run: as §1
# [5] = test system: velvetleaf (Abutilon theophrasti); assay: Test G Post-Emergence Protocol; conditions: Abutilon theophrasti, post-emergence, 312 h; for pest or weed control at 15.625 g/ha: 15.625 g ai/ha, evaluated after 13 days (100=total damage to plant; 0=no damage to plant), read-out: Velvetleaf damage rating; for pest or weed control at 62.5 g/ha: 62.5 g ai/ha, read-out: Velvetleaf damage rating (100=total damage to plant; 0=no damage to plant); for pest or weed control at 62.5 g/ha / pest or weed control at 250 g/ha: evaluated after 13 days; for pest or weed control at 250 g/ha: 250 g ai/ha, read-out: damage to plant, Velvetleaf (100=total damage to plant; 0=no damage to plant)
# How it was run: as §1
# [6] = test system: barnyardgrass (Echinochloa crus-galli); assay: Test G Post-Emergence Protocol; conditions: Echinochloa crus-galli, post-emergence, 312 h; for pest or weed control at 15.625 g/ha: 15.625 g ai/ha, evaluated after 13 days (100=total damage to plant; 0=no damage to plant), read-out: Barnyardgrass damage rating; for pest or weed control at 62.5 g/ha: 62.5 g ai/ha, read-out: Barnyardgrass damage rating (100=total damage to plant; 0=no damage to plant); for pest or weed control at 62.5 g/ha / pest or weed control at 250 g/ha: evaluated after 13 days; for pest or weed control at 250 g/ha: 250 g ai/ha, read-out: damage to plant, Barnyardgrass (100=total damage to plant; 0=no damage to plant)
# How it was run: as §1
# [7] = test system: redroot pigweed (Amaranthus retroflexus); assay: Test G Pre-Emergence Protocol; conditions: Amaranthus retroflexus, pre-emergence, 312 h, evaluated after 13 days; for pest or weed control at 15.625 g/ha: 15.625 g ai/ha; for pest or weed control at 15.625 g/ha / pest or weed control at 250 g/ha: read-out: Pigweed, Redroot damage rating (100=total damage to plant; 0=no damage to plant); for pest or weed control at 62.5 g/ha: 62.5 g ai/ha, 100=total damage to plant, 0=no damage to plant, read-out: plant damage rating, Pigweed, Redroot; for pest or weed control at 250 g/ha: 250 g ai/ha
# How it was run: (§2)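 Herbicidal effect was rated 13 days post-application on a scale where 100 equals total damage. Spraying took place the day after sowing, using 15.625, 62.5 or 250 g/ha of compound in a 50:50 acetone/water solution with 0.5% Tween 20.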
# corn (Zea mays) [8] = assay: Test G Pre-Emergence Protocol; conditions: Zea mays, pre-emergence, 312 h, evaluated after 13 days; for plant injury at 15.625 g/ha: 15.625 g ai/ha; for plant injury at 15.625 g/ha / plant injury at 250 g/ha: read-out: Corn damage rating (100=total damage to plant; 0=no damage to plant); for plant injury at 62.5 g/ha: 62.5 g ai/ha, 100=total damage to plant, 0=no damage to plant, read-out: plant damage rating, Corn; for plant injury at 250 g/ha: 250 g ai/ha
# How it was run: as §2
# [9] = test system: giant foxtail (Setaria faberi); assay: Test G Pre-Emergence Protocol; conditions: Setaria faberi, pre-emergence, 312 h, evaluated after 13 days; for pest or weed control at 15.625 g/ha: 15.625 g ai/ha; for pest or weed control at 15.625 g/ha / pest or weed control at 250 g/ha: read-out: Foxtail, Giant damage rating (100=total damage to plant; 0=no damage to plant); for pest or weed control at 62.5 g/ha: 62.5 g ai/ha, 100=total damage to plant, 0=no damage to plant, read-out: plant damage rating, Foxtail, Giant; for pest or weed control at 250 g/ha: 250 g ai/ha
# How it was run: as §2
# [10] = test system: ivy-leaved morning glory (Ipomoea hederacea); assay: Test G Pre-Emergence Protocol; conditions: Ipomoea, pre-emergence, 312 h, evaluated after 13 days; for pest or weed control at 15.625 g/ha: 15.625 g ai/ha, read-out: Morning-glory, Ivy-leaved damage rating (100=total damage to plant; 0=no damage to plant); for pest or weed control at 62.5 g/ha: 62.5 g ai/ha, 100=total damage to plant, 0=no damage to plant, read-out: plant damage rating, Morningglory, Ivy-leaved; for pest or weed control at 250 g/ha: 250 g ai/ha, read-out: Morningglory, Ivy-leaved damage rating (100=total damage to plant; 0=no damage to plant)
# How it was run: as §2
# [11] = test system: velvetleaf (Abutilon theophrasti); assay: Test G Pre-Emergence Protocol; conditions: Abutilon theophrasti, pre-emergence, 312 h, evaluated after 13 days; for pest or weed control at 15.625 g/ha: 15.625 g ai/ha; for pest or weed control at 15.625 g/ha / pest or weed control at 250 g/ha: read-out: Velvetleaf damage rating (100=total damage to plant; 0=no damage to plant); for pest or weed control at 62.5 g/ha: 62.5 g ai/ha, 100=total damage to plant, 0=no damage to plant, read-out: plant damage rating, Velvetleaf; for pest or weed control at 250 g/ha: 250 g ai/ha
# How it was run: as §2
# [12] = test system: barnyardgrass (Echinochloa crus-galli); assay: Test G Pre-Emergence Protocol; conditions: Echinochloa crus-galli, pre-emergence, 312 h, evaluated after 13 days; for pest or weed control at 15.625 g/ha: 15.625 g ai/ha, read-out: Barnyard grass damage rating (100=total damage to plant; 0=no damage to plant); for pest or weed control at 62.5 g/ha: 62.5 g ai/ha, 100=total damage to plant, 0=no damage to plant, read-out: plant damage rating, Barnyardgrass; for pest or weed control at 250 g/ha: 250 g ai/ha, read-out: Barnyardgrass damage rating (100=total damage to plant; 0=no damage to plant)
# How it was run: as §2
SMILES,pest or weed control at 15.625 g/ha [1],pest or weed control at 62.5 g/ha [1],pest or weed control at 250 g/ha [1],plant injury at 15.625 g/ha (corn (Zea mays) [2]),plant injury at 62.5 g/ha (corn (Zea mays) [2]),plant injury at 250 g/ha (corn (Zea mays) [2]),pest or weed control at 15.625 g/ha [3],pest or weed control at 62.5 g/ha [3],pest or weed control at 250 g/ha [3],pest or weed control at 15.625 g/ha [4],pest or weed control at 62.5 g/ha [4],pest or weed control at 250 g/ha [4],pest or weed control at 15.625 g/ha [5],pest or weed control at 62.5 g/ha [5],pest or weed control at 250 g/ha [5],pest or weed control at 15.625 g/ha [6],pest or weed control at 62.5 g/ha [6],pest or weed control at 250 g/ha [6],pest or weed control at 15.625 g/ha [7],pest or weed control at 62.5 g/ha [7],further results
CN1C[C@@H](c2ccc(C(F)(F)F)cc2)[C@H](C(=O)Nc2cccnc2Cl)C1=O (racemic) [Compound 1517],0%,0%,20%,0%,10%,80%,20%,60%,60%,20%,30%,70%,0%,10%,20%,0%,50%,70%,0%,0%,pest or weed control at 250 g/ha [7]: 60%; plant injury at 15.625 g/ha (corn (Zea mays) [8]): 0%; plant injury at 62.5 g/ha (corn (Zea mays) [8]): 0%; plant injury at 250 g/ha (corn (Zea mays) [8]): 20%; pest or weed control at 15.625 g/ha [9]: 30%; pest or weed control at 62.5 g/ha [9]: 70%; pest or weed control at 250 g/ha [9]: 80%; pest or weed control at 15.625 g/ha [10]: 0%; pest or weed control at 62.5 g/ha [10]: 0%; pest or weed control at 250 g/ha [10]: 0%; pest or weed control at 15.625 g/ha [11]: 0%; pest or weed control at 62.5 g/ha [11]: 0%; pest or weed control at 250 g/ha [11]: 0%; pest or weed control at 15.625 g/ha [12]: 0%; pest or weed control at 62.5 g/ha [12]: 70%; pest or weed control at 250 g/ha [12]: 90%
CN1C[C@@H](c2ccc(C(F)(F)F)cc2)[C@H](C(=O)Nc2ccon2)C1=O (racemic) [Compound 1506],0%,0%,0%,0%,0%,0%,0%,0%,0%,0%,0%,0%,0%,0%,0%,0%,0%,0%,0%,0%,pest or weed control at 250 g/ha [7]: 0%; plant injury at 15.625 g/ha (corn (Zea mays) [8]): 0%; plant injury at 62.5 g/ha (corn (Zea mays) [8]): 0%; plant injury at 250 g/ha (corn (Zea mays) [8]): 0%; pest or weed control at 15.625 g/ha [9]: 0%; pest or weed control at 62.5 g/ha [9]: 0%; pest or weed control at 250 g/ha [9]: 0%; pest or weed control at 15.625 g/ha [10]: 0%; pest or weed control at 62.5 g/ha [10]: 0%; pest or weed control at 250 g/ha [10]: 0%; pest or weed control at 15.625 g/ha [11]: 0%; pest or weed control at 62.5 g/ha [11]: 0%; pest or weed control at 250 g/ha [11]: 0%; pest or weed control at 15.625 g/ha [12]: 0%; pest or weed control at 62.5 g/ha [12]: 0%; pest or weed control at 250 g/ha [12]: 0%
